Data published in patent publication US20250360106A1, “PREVENTING IMMUNOTHERAPY-INDUCED EDEMA USING ANGIOTENSIN RECEPTOR BLOCKERS” (The General Hospital Corporation, priority 2022, published 2025).
“Also recorded” adds a separate entry of the source.

Legend:
GBM cells = conditions: at physiological levels; cited from earlier work
GL261 tumors [1] = assay: Tumor edema by wet/dry weight (water content), GL261 model; format: in vivo; conditions: mice under anti-PD1 treatment
Description: (§1) Edema in the tumor was assessed immediately after animal sacrifice via wet/dry weight analysis to determine the water content as previously described (43).

GBM patients [2] = assay: Patient overall survival, Kaplan-Meier (trial NCT00662506); format: in vivo, human; conditions: cediranib, patients not on ASIs; n=33
recurrent GBM patient = assay: MR T2-FLAIR imaging of a recurrent GBM patient before and after anti-PD-L1; format: in vivo, human; conditions: after 4 months of anti-PD-L1 treatment; NCT02336165
hyaluronic acid (HA) = assay: Hyaluronic acid immunofluorescent imaging, GL261; format: in vivo, mice; conditions: 2 weeks of losartan, n=5
From the text: (§2) Brains with tumors were prepped and stained for histology as previously described (45) and imaged on a TissueFAXS (TissueGnostics) slide scanner at the Ragon Institute, Massachusetts Institute of Technology.

GL261 tumors [3] = assay: Bulk RNASeq of GL261 tumors; format: in vivo, mice
glioblastoma = assay: Survival of mice with glioblastoma under losartan and ICB (summary statement); format: in vivo; conditions: losartan with ICB, in lieu of corticosteroids
[4] = tested on: MT-MMP-1 and -2 (Mt1, Mt2); assay: scRNASeq of tumor endothelial cells (TECs) from GL261 tumors; format: in vivo, mice
Description: Following the single-cell suspension techniques of flow cytometry, tumor cells were blocked in 1% bovine serum albumin in phosphate-buffered saline solution (1% BSA/PBS). Cell suspensions were subsequently stained for flow cytometry for 30 min at 4° C. using antibodies specific for CD45 [30F11]-VioBlue from Miltenyi, CD3 [145-2C11]-PE from Biolegends, and CD 31 [MEC 13.3]-PE from BD Biosciences. Cells were washed with cold PBS, and then incubated for 15 min in 1.5 mL of 1% BSA/PBS containing 1 uM calcein AM (Life Technologies) and 0.33 uM TO-PRO-3 iodide (Life Technologies). Sorting was performed with the FACS Aria Fusion Special Order System (Becton Dickinson) using 488 nm (calcein AM, 530/30 filter; CD3-PE, 585/42 filter), 640 nm (TO-PRO-3, 670/14 filter), and 405 nm (CD45-VioBlue, 450/50 filter) lasers. […]
Sequencing data was processed from raw reads to gene expression matrices, starting with fbcl2fastq (v2.20.0) to generate demultiplexed FASTQ files. Bowtie was used to align the resulting paired-end scRNA-seq reads to the mouse transcriptome (mm10). Gene expression levels were quantified as transcripts-per-million (TPM) by running RSEM (v1.2.19) in paired-end mode. […]

CT2A = assay: Survival study, CT2A model; format: in vivo, mice
Description: (§3) Brain tumor implantation in the forebrain (50,000-100,000 cells), cranial window surgery and tumor resection as part of the standard of care treatment regimen were conducted as previously described (16, 43, 45). Mice were allowed to recover for 10-14 days after cranial window surgery prior to tumor implantation, and for 2 days after resection surgery (as part of the standard of care or bihemispheric model) prior to treatment initiation.

[5] = tested on: GL261 tumor blood vessels; assay: OCT imaging of tumor perfusion; format: in vivo, mice; conditions: vs PBS-treated controls
From the text: In vivo imaging of perfused vessels was achieved via a custom-built optical coherence tomography (OCT) system as previously described (15). […] A depth-resolved profile was generated each day, and the raw tomograms were processed as previously described. Images across multiple days were co-registered using the Scale-invariant feature transform (SIFT) algorithm in ImageJ and Python.

GL261 [6] = assay: Survival study, GL261 model with standard of care (resection, radiation, temozolomide); format: in vivo, mice
Description: as §3

005 GSC [7] = assay: Tumor edema by wet/dry weight, 005 GSC model; format: in vivo, mice; conditions: after 2 weeks of treatment
Description: as §1

PD-L1 = PD-L1 immunohistochemistry, GL261; format: in vivo, mice; conditions: 2 weeks of losartan, n=11-13
From the text: as §2

GL261 tumors [8] = assay: Flow cytometry of tumors and cervical draining lymph nodes, GL261; format: in vivo, mice
Description: Single-cell suspensions were prepared from tumors and cervical draining lymph nodes that were isolated and dissected under stereotactic microscope. Cells were stained and processed (on a BD LSRFortessa X-20 Cell analyzer) and analyzed (FlowJo, Tree Star) as previously described (16). The following antibodies from BD Biosciences, EBioscience, and BioLegend were used at 1:200 dilutions: CD45-BV605, CD3-BV785, CD4-BV640, CD8-BV711A, NK1.1-APC; FoxP3-BV421; PD1-PerCP710A; TIGIT-PE Cy7; TIM3-PE; CD19-BV510; K167-FITC; GranzymeB-PE Cy7; CD11 b-BV785; MHCII-BV605; F4/80-PerCP Cy5.5; CX3CR1-APC; CD206-PE CY7; CD86-BV650; CCR2-PE; GR1-AF700.

005 GSC [9] = assay: Survival study, 005 GSC model; format: in vivo, mice; conditions: losartan with anti-PD1, no detectable tumors over 100 days
Description: as §3

GBM = conditions: in combination with the standard of care; cited from earlier work
GL261 [10] = assay: Survival study, GL261 model; format: in vivo, mice; conditions: losartan with anti-PD1, no detectable tumors over 100 days
Description: as §3

GL261 [11] = assay: Solid stress by 3D micro-ultrasound tissue deformation, GL261; format: in vivo, mice; conditions: 2 weeks of losartan, n=4
From the text: Tumor size was visualized by 3D micro-ultrasound in anesthetized mice through the transparent cranial windows (45). Ultrasound was also used to measure tumor deformation as a readout of solid stress, following previous methods (14).

GBM patients [12] = conditions: human, in vivo; cited from earlier work
[13] = GL261, standard of care + anti-PD1 + losartan

For `CNC(=O)[C@H](Cc1c[nH]c2ccccc12)NC(=O)[C@@H](CC(=O)NO)CC(C)C` [Ilomastat], the “toxicity to GBM cells” value (GBM cells) is given as “non-toxic” and the anti-PD1-induced edema (GL261 tumors [1]) is given as “controls anti-PD1-induced edema comparably to losartan; also recorded: phenocopied the ability of losartan to prevent anti-PD1-induced edema”.
Compound `COc1cc2c(Oc3ccc4[nH]c(C)cc4c3F)ncnc2cc1OCCCN1CCCC1` [cediranib] has an overall survival (GBM patients [2]) of 527 days.
With “MEDI4763: anti-PD-L1 (NCT02336165) given to a recurrent GBM patient” the “edema on MR T2-FLAIR images” value (recurrent GBM patient) was “increased edema”.
For `CCCCc1nc(Cl)c(CO)n1Cc1ccc(-c2ccccc2-c2nn[nH]n2)cc1` [losartan], the HA levels (hyaluronic acid (HA)) was “reduces”, the “global and pro-tumor (M2-like) TAM-associated genes” value (GL261 tumors [3]; bulk RNASeq) was “reduced the expression” and the microglia-associated genes (GL261 tumors [3]; bulk RNASeq) was “upregulated”. The “gene expression related to ECM, angiogenesis, immunosuppression, and hypoxia” value (GL261 tumors [3]; vs controls, n=3) was “significantly reduced”, the mice cured (glioblastoma) was 20% and the “TEC MT-MMP-1 and -2 (Mt1, Mt2) expression” value [4] was “downregulating”. The anti-PD1-induced edema (GL261 tumors [1]) was “decreases anti-PD1-induced edema”, the “effect of adding losartan to anti-PD1 on survival” value (CT2A) was “failed to further enhance ICB efficacy” and the “tumor vessel normalization and perfusion” value [5] was “greater overall perfusion”. The “OS under the standard of care without ICB” value (GL261 [6]; GBM mouse models, losartan not given in conjunction with ICB) was “does not improve OS”, the long-term survivors (GL261 [6]; [13]) was 43% and the “tumor re-challenge of long-term survivors” value (GL261 [6]; [13]) was “rejected tumor re-challenge”. The mice cured (GL261 [6]; losartan with ICB in combination with standard of care treatment) was 40%, the anti-PD1-induced edema (005 GSC [7]) was “decreases anti-PD1-induced edema” and the PD-L1 protein expression (PD-L1) was “reduces”. The “myeloid cells in tumors” value (GL261 tumors [8]) was “fewer myeloid cells”, the “long-term survivors (LTS)” value (005 GSC [9]) was 22% and the “median OS” value (GBM) was “failed to improve median OS”. The “long-term survivors (LTS)” value (GL261 [10]) was 15% and the “solid stress (tissue deformation)” value (GL261 [11]) was “reduces”.
For bevacizumab, the “OS in GBM patients under ICB therapy” value (GBM patients [12]) is given as “failed to improve OS”.
